Results as given in patent US20080207614A1, “QUINAZOLINE DERIVATIVES FOR THE TREATMENT AND PREVENTION OF DIABETES AND OBESITY” (SK CHEMICALS CO., LTD., priority 2004, published 2008).

What was measured:
AMPK = assay: Measurement of AMPK activity by Western blot in C2C12 cells; type: cell-based; design: key to AMPK activity (degree of phosphorylation of serine-79 and threonine-172): fold increase in threonine-172 phosphorylation; AMPK activity (degree of phosphorylation of serine-79): unit not given here; details: 10 μM for 50 minutes; for AMPK activity (degree of phosphorylation of serine-79 and threonine-172): no superscript: Western blot of serine-79 and threonine-172 phosphorylation; for AMPK activity (class: degree of phosphorylation of threonine-172): strong/mild/weak; for AMPK activity (degree of phosphorylation of serine-79): footnote a: Western blot of serine-79 phosphorylation
Summary of the method: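 Western blot readout of AMPK Thr-172 and ACC Ser-79 phosphorylation, normalised against ERK, served as the activity measure. Cells were C2C12 after differentiation, treated 50 minutes with 10 μM test material. Grading by Thr-172 increase: ≥3-fold strong, 1-3-fold mild, <1-fold weak.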

C2C12 muscle cells = assay: Analysis of glucose absorption (2-deoxyglucose) in differentiated C2C12 muscle cells; type: cell-based; details: test materials 10 μM, times relative to control group
Summary of the method: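 Uptake of 0.2 μCi 2-deoxyglucose over 20 min, counted radiometrically in lysed cells. Before tracer, compounds (10 μM) were applied for 30 min to C2C12 cells differentiated 6 days in 1% serum and equilibrated 3 h in 5 mM glucose KRB.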

Row | Compound | AMPK activity (degree of phosphorylation of serine-79 and threonine-172) (AMPK) | AMPK activity (class: degree of phosphorylation of threonine-172) (AMPK) | Glucose absorption (C2C12 muscle cells) | AMPK activity (degree of phosphorylation of serine-79) (AMPK)
1 | Clc1ccc(CCNc2nc(-c3ccccc3)nc3ccccc23)cc1 [Compound 123, [2-(4-chlorophenyl)-ethyl]-(2-phenylquinazolino-4-yl)-amine] | 2.3 | strong (“strong” means that the degree of phosphorylation of threonine-172 increased by 3 times or more) | 2.1 | 
2 | CC(C)(C)c1nc(NCCc2cccc(F)c2)c2ccccc2n1 [Compound 196, (2-tert-Butylquinazolino-4-yl)-[2-(3-fluorophenyl)-ethyl]-amine] | 4.8 | strong (“strong” means that the degree of phosphorylation of threonine-172 increased by 3 times or more) | 2.1 | 
3 | CCSc1nc(NCCCCc2ccccc2)c2ccccc2n1 [Compound 30, (2-Ethylsulfanylquinazolino-4-yl)-(4-phenylbutyl)-amine] |  | mild (“mild” means that the degree of phosphorylation of threonine-172 increased by 1 to 3 times) | 1.8 | 
4 | CCCc1nc(NCc2ccc3c(c2)OCO3)c2ccccc2n1 [Compound 396, Benzo[1,3]dioxol-5-ylmethyl-(2-propylquinazolino-4-yl)-amine] | 7.3 |  | 1.3 | 
5 | COc1ccc(CNc2nc(-c3ccccc3)nc3ccccc23)c(OC)c1 [Compound 144, (2,4-Dimethoxybenzyl)-(2-phenylquinazolino-4-yl)-amine] | 2.1 | strong (“strong” means that the degree of phosphorylation of threonine-172 increased by 3 times or more) | 1.3 | 
6 | ClC(Cl)(Cl)c1nc(NCCN2CCCCC2)c2ccccc2n1 [Compound 4, (2-Piperidino-1-ylethyl)-(2-trichloromethylquinazolino-4-yl)-amine] |  |  | 1.2 | 3.5^a
7 | c1ccc(CNc2nc(C3CCCCC3)nc3ccccc23)cc1 [Compound 199, Benzyl-(2-cyclohexylquinazolino-4-yl)-amine] | 2.3 | strong (“strong” means that the degree of phosphorylation of threonine-172 increased by 3 times or more) | 2.1 | 
8 | CC(C)c1nc(NCCc2cccc(F)c2)c2ccccc2n1 [Compound 184, [2-(3-Fluorophenyl)-ethyl]-(2-isopropylquinazolino-4-yl)-amine] | 1.9 | strong (“strong” means that the degree of phosphorylation of threonine-172 increased by 3 times or more) | 3.2 | 
9 | COc1ccc(CNc2nc(C(OC)c3ccccc3)nc3ccccc23)cc1 (stereo not shown) [Compound 362, (4-Methoxybenzyl)-[2-(methoxyphenylmethyl)-quinazolino-4-yl]-amine] | 2.6 |  | 1.2 | 
10 | COc1cc(CNc2nc(C(C)c3ccccc3)nc3ccccc23)cc(OC)c1OC (stereo not shown) [Compound 378, [2-(1-Phenylethyl)-quinazolino-4-yl]-(3,4,5-trimethoxybenzyl)-amine] | 4.7 |  | 0.9 | 
11 | Clc1cccc(CCNc2nc(-c3ccccc3)nc3ccccc23)c1 [Compound 126, [2-(3-Chlorophenyl)-ethyl]-(2-phenylquinazolino-4-yl)-amine] | 2.0 | strong (“strong” means that the degree of phosphorylation of threonine-172 increased by 3 times or more) | 2.1 | 
12 | CCOc1cc2ncnc(NCCc3ccccn3)c2cc1OCC [Compound 17, (6,7-Diethoxyquinazolino-4-yl)-(2-pyridino-2-ylethyl)-amine] |  |  | 1.2 | 2.2^a
13 | CCSc1nc(NCCN2CCOCC2)c2ccccc2n1 [Compound 11, (2-Ethylsulfanylquinazolino-4-yl)-(2-morpholino-4-ylethyl)-amine] |  |  | 1.0 | 3.2^a
14 | COc1ccc(CNc2nc(N3CCCCC3)nc3ccccc23)cc1OC [Compound 300, (3,4-Dimethoxybenzyl)-(2-piperidino-1-ylquinazolino-4-yl)-amine] | 1.0 |  | 0.9 | 
15 | Clc1ccc(CCNc2nc(-c3ccccc3)nc3ccccc23)cc1Cl [Compound 149, [2-(3,4-Dichlorophenyl)-ethyl]-(2-phenylquinazolino-4-yl)-amine] | 2.5 | strong (“strong” means that the degree of phosphorylation of threonine-172 increased by 3 times or more) | 2.6 | 
16 | Clc1ccc(CNc2nc(-c3ccccc3)nc3ccccc23)c(Cl)c1 [Compound 108, (2,4-Dichlorobenzyl)-(2-phenylquinazolino-4-yl)-amine] | 2.2 | strong (“strong” means that the degree of phosphorylation of threonine-172 increased by 3 times or more) | 2.2 | 
17 | CCSc1nc(NCc2cccc(C(F)(F)F)c2)c2ccccc2n1 [Compound 26, (2-Ethylsulfanylquinazolino-4-yl)-(3-trifluoromethylbenzyl)-amine] |  | mild (“mild” means that the degree of phosphorylation of threonine-172 increased by 1 to 3 times) | 1.7 | 
18 | COc1ccc(CNc2nc(N3CCOCC3)nc3ccccc23)c(OC)c1 [Compound 293, (2,4-Dimethoxybenzyl)-(2-morpholino-4-ylquinazolino-4-yl)-amine] | 0.1 |  | 0.6 | 
19 | COc1ccccc1CNc1nc(N2CCCCC2)nc2ccccc12 [Compound 276, (2-Methoxybenzyl)-(2-piperidino-1-ylquinazolino-4-yl)-amine] | 1.9 |  | 0.8 | 
20 | COc1ccc(CNc2ncnc3ccccc23)c(OC)c1 [Compound 412, (2,4-Dimethoxybenzyl)-quinazolino-4-ylamine] | 8.4 |  | 1.7 | 
21 | CCSc1nc(NCCc2cccc(C(F)(F)F)c2)c2ccccc2n1 [Compound 12, (2-Ethylsulfanylquinazolino-4-yl)-[2-(3-trifluoromethyl-phenyl)ethyl]-amine] |  |  | 0.8 | 4.0^a
22 | COc1cc(CNc2nc(C3CC3)nc3ccccc23)cc(OC)c1OC [Compound 389, (2-Cyclopropylquinazolino-4-yl)-(3,4,5-trimethoxybenzyl)-amine] | 2.2 |  | 1.3 | 
23 | Brc1ccccc1CNc1nc(-c2ccccc2)nc2ccccc12 [Compound 155, (2-Bromobenzyl)-(2-phenylquinazolino-4-yl)-amine] | 1.3 | mild (“mild” means that the degree of phosphorylation of threonine-172 increased by 1 to 3 times) | 2.7 | 
